Experimental data as given in US20040259926A1, “3-Aryloxy and 3-heteroaryloxy substituted benzo[b]thiophenes as therapeutic agents” (priority 2003, published 2004).

biological target: T1, PI3Kγ (recombinant p101/p110γ protein) (Homo sapiens, UniProt P48736); test: PI3Kγ In Vitro Kinase Assay; format: biochemical; settings: purified recombinant p101/p110γ with G protein β1/γ2 subunits; 20 μM ATP, [γ-32P-ATP]; 25 μM PIP2 lipid micelles; 20 minutes at room temperature
T1 construct: HA; made in house; host or cells: Spodoptera frugiperda (Sf9) cells, baculovirus co-infection
T1 sequence (P48736 whole entry, species assumed): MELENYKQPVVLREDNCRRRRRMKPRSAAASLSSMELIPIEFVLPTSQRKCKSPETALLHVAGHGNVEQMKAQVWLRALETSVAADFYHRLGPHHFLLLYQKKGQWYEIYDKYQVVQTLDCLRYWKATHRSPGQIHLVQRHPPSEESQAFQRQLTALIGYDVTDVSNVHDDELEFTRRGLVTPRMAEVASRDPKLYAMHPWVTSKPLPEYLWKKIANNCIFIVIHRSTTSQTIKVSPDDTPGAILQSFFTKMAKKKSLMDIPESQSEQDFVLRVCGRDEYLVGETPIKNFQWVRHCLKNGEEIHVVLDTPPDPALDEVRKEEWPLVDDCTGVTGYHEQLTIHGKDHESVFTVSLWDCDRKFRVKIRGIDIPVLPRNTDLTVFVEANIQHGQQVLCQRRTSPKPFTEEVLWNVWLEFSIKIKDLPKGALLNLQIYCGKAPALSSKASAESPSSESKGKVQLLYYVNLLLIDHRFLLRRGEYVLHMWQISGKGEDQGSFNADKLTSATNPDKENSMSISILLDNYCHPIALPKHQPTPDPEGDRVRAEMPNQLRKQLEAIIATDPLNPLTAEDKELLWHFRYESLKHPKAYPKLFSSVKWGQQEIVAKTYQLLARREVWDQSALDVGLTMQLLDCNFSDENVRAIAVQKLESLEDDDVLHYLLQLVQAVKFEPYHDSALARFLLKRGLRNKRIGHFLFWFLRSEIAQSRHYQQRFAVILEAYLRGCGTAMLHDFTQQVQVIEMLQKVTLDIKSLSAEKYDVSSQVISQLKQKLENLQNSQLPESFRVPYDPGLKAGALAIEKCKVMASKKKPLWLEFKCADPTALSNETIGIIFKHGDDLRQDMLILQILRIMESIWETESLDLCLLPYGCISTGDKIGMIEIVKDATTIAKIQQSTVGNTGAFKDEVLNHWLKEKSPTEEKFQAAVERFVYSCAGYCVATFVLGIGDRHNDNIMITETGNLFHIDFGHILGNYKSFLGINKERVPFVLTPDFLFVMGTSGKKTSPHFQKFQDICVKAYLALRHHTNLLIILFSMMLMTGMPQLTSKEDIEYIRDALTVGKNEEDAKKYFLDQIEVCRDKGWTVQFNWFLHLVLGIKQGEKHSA
T1 sequence (Q8WYR1 whole entry partner, species assumed): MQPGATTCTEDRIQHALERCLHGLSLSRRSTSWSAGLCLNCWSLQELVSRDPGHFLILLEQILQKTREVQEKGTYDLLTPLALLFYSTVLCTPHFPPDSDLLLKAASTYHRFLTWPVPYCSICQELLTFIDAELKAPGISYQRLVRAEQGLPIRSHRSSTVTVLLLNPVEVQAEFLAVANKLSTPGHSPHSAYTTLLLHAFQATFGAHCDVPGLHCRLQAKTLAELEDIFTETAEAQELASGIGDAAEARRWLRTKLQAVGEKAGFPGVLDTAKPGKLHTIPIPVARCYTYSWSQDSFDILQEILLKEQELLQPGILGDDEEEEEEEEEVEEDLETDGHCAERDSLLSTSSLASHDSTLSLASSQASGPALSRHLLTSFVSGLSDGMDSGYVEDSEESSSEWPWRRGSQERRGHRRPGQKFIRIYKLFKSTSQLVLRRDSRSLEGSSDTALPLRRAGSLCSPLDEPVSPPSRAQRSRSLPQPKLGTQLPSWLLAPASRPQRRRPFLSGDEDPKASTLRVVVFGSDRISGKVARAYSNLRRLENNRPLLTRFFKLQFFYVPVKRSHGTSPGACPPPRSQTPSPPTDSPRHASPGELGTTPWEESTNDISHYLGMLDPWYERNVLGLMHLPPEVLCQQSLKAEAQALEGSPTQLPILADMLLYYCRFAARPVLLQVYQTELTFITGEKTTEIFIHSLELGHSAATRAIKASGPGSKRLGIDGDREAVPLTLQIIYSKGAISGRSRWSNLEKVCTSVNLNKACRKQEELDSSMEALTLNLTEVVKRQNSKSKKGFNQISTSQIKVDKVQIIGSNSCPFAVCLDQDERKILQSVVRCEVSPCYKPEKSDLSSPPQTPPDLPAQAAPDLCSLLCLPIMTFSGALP
In short: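 Baculovirus/Sf9-expressed p101/p110γ (~2.7 nM) with Gβ1/γ2 (~57.7 nM) in HEPES/NaCl/EGTA/DTT buffer; 20 μM ATP plus [γ-32P]ATP, micelles of 25 μM PIP2, 300 μM PE, 10 mM MgCl2. Reactions ran 20 minutes at room temperature; radiolabelled PIP3 captured on glass-fibre filters and counted for IC50.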

Row | Structure (SMILES) | IC50 [nM]
1 | COc1cc2c(Oc3ccc(C4CCC5(CC4)OCCO5)cc3)c(C(=O)Nc3nn[nH]n3)sc2cc1C [Example B.68, 3-[4-(1,4-Dioxa-spiro[4.5]dec-8-yl)-phenoxy]-5-methoxy-6-methyl-benzo[b]thiophene-2-carboxylic acid (2H-tetrazol-5-yl)-amide] | 8
2 | COc1cc2c(Oc3ccc(C4CCS(=O)(=O)CC4)cc3)c(C(=O)Nc3nn[nH]n3)sc2cc1C [Example B.69, 3-[4-(1,1-Dioxo-hexahydro-1λ^6-thiopyran-4-yl)-phenoxy]-5-methoxy-6-methyl-benzo[b]thiophene-2-carboxylic acid (2H-tetrazol-5-yl)-amide] | 4
3 | COc1cc2c(Oc3ccc(C4CCCCC4)cc3[N+](=O)[O-])c(C(=O)Nc3nn[nH]n3)sc2cc1C [Example B.70, 5-Methoxy-6-methyl-3-(2-nitro-4-cyclohexyl-phenoxy)-benzo[b]thiophene-2-carboxylic acid (2H-tetrazol-5-yl)-amide] | 17
4 | COc1cc2c(Oc3ccc(C4CCCCC4)cc3N)c(C(=O)Nc3nn[nH]n3)sc2cc1C [Example B.71, 3-(2-Amino-4-cyclohexyl-phenoxy)-5-methoxy-6-methyl-benzo[b]thiophene-2-carboxylic acid (2H-tetrazol-5-yl)-amide] | 275
5 | COc1cc2c(Oc3ccc(C4CCCCC4)cc3OC)c(C(=O)Nc3nn[nH]n3)sc2cc1C [Example B.72, 3-(2-Methoxy-4-cyclohexyl-phenoxy)-5-methoxy-6-methyl-benzo[b]thiophene-2-carboxylic acid (2H-tetrazol-5-yl)-amide] | 160
6 | COc1cc2c(Oc3ccc(C4CCCCC4)cc3Cl)c(C(=O)Nc3nn[nH]n3)sc2cc1C [Example B.73, 3-(2-Chloro-4-cyclohexyl-phenoxy)-5-methoxy-6-methyl-benzo[b]thiophene-2-carboxylic acid (2H-tetrazol-5-yl)-amide] | 13
7 | COc1cc2c(Oc3ccc(C4CCCCC4)cc3Br)c(C(=O)Nc3nn[nH]n3)sc2cc1C [Example B.74, 3-(2-Bromo-4-cyclohexyl-phenoxy)-5-methoxy-6-methyl-benzo[b]thiophene-2-carboxylic acid (2H-tetrazol-5-yl)-amide] | 12
8 | COc1cc2c(Oc3ccc(C4CCCCC4)cc3C#N)c(C(=O)Nc3nn[nH]n3)sc2cc1C [Example B.75, 3-(2-Cyano-4-cyclohexyl-phenoxy)-5-methoxy-6-methyl-benzo[b]thiophene-2-carboxylic acid (2H-tetrazol-5-yl)-amide] | 6
9 | COc1cc2sc(C(=O)Nc3nnn[nH]3)c(OCCc3ccccc3)c2cc1OC [Example C.1, 5,6-Dimethoxy-3-phenethyloxy-benzo[b]thiophene-2-carboxylic acid (1H-tetrazol-5-yl)-amide] | 185
10 | COc1cc2sc(C(=O)Nc3nnn[nH]3)c(OCc3cccc(Br)c3)c2cc1OC [Example C.2, 3-(3-Bromo-benzyloxy)-5,6-dimethoxy-benzo[b]thiophene-2-carboxylic acid (1H-tetrazol-5-yl)-amide] | 346
11 | COc1cc2sc(C(=O)Nc3nnn[nH]3)c(OCc3ccc(F)c(F)c3)c2cc1OC [Example C.3, 3-(3,4-Difluoro-benzyloxy)-5,6-dimethoxy-benzo[b]thiophene-2-carboxylic acid (1H-tetrazol-5-yl)-amide] | 3630
12 | COc1cc2sc(C(=O)Nc3nnn[nH]3)c(OCc3ccc(-c4ccccc4)cc3)c2cc1OC [Example C.4, 3-(Biphenyl-4-ylmethoxy)-5,6-dimethoxy-benzo[b]thiophene-2-carboxylic acid (1H-tetrazol-5-yl)-amide] | 2650
13 | COc1cc2sc(C(=O)Nc3nnn[nH]3)c(OCc3cccc(C(F)(F)F)c3)c2cc1OC [Example C.5, 5,6-Dimethoxy-3-(3-trifluoromethyl-benzyloxy)-benzo[b]thiophene-2-carboxylic acid (1H-tetrazol-5-yl)-amide] | 1620
14 | COc1cc(COc2c(C(=O)Nc3nnn[nH]3)sc3cc(OC)c(OC)cc23)cc(OC)c1 [Example C.6, 3-(3,5-Dimethoxy-benzyloxy)-5,6-dimethoxy-benzo[b]thiophene-2-carboxylic acid (1H-tetrazol-5-yl)-amide] | 1520
15 | COc1cc2sc(C(=O)Nc3nnn[nH]3)c(OCc3ccc(C(C)(C)C)cc3)c2cc1OC [Example C.7, 3-(4-tert-Butyl-benzyloxy)-5,6-dimethoxy-benzo[b]thiophene-2-carboxylic acid (1H-tetrazol-5-yl)-amide] | 986
16 | COc1cc2sc(C(=O)Nc3nnn[nH]3)c(OCc3c(F)ccc(F)c3F)c2cc1OC [Example C.8, 5,6-Dimethoxy-3-(2,3,6-trifluoro-benzyloxy)-benzo[b]thiophene-2-carboxylic acid (1H-tetrazol-5-yl)-amide] | 564
17 | COc1cc2sc(C(=O)Nc3nnn[nH]3)c(O[C@H](C)Cc3ccccc3)c2cc1OC [Example C.10, 5,6-Dimethoxy-3-((R)-1-methyl-2-phenyl-ethoxy)-benzo[b]thiophene-2-carboxylic acid (1H-tetrazol-5-yl)-amide] | 1800

Row | Structure (SMILES) | IC50 [nM]
18 | COc1cc2sc(C(=O)Nc3nnn[nH]3)c(OCc3cccnc3)c2cc1OC [Example C.11, 5,6-Dimethoxy-3-(pyridin-3-ylmethoxy)-benzo[b]thiophene-2-carboxylic acid (1H-tetrazol-5-yl)-amide] | 1480
19 | COc1cc2sc(C(=O)Nc3nnn[nH]3)c(OCc3cccc(Oc4ccccc4)c3)c2cc1OC [Example C.12, 5,6-Dimethoxy-3-(3-phenoxy-benzyloxy)-benzo[b]thiophene-2-carboxylic acid (1H-tetrazol-5-yl)-amide] | 1160
20 | COc1cc2sc(C(=O)Nc3nnn[nH]3)c(OCC(c3ccccc3)c3ccccc3)c2cc1OC [Example C.13, 3-(2,2-Diphenyl-ethoxy)-5,6-dimethoxy-benzo[b]thiophene-2-carboxylic acid (1H-tetrazol-5-yl)-amide] | 970
21 | COc1cc2sc(C(=O)Nc3nnn[nH]3)c(OCc3ccccn3)c2cc1OC [Example C.14, 5,6-Dimethoxy-3-(pyridin-2-ylmethoxy)-benzo[b]thiophene-2-carboxylic acid (1H-tetrazol-5-yl)-amide] | 885
22 | COc1cc2sc(C(=O)Nc3nnn[nH]3)c(OCCc3cccc4ncccc34)c2cc1OC [Example C.15, 5,6-Dimethoxy-3-(2-quinolin-5-yl-ethoxy)-benzo[b]thiophene-2-carboxylic acid (1H-tetrazol-5-yl)-amide] | 757
23 | COc1ccc(CCOc2c(C(=O)Nc3nnn[nH]3)sc3cc(OC)c(OC)cc23)cc1OC [Example C.16, 3-[2-(3,4-Dimethoxy-phenyl)-ethoxy]-5,6-dimethoxy-benzo[b]thiophene-2-carboxylic acid (1H-tetrazol-5-yl)-amide] | 740
24 | COc1cc2sc(C(=O)Nc3nnn[nH]3)c(OCCc3cccc4ccccc34)c2cc1OC [Example C.17, 5,6-Dimethoxy-3-(2-naphthalen-1-yl-ethoxy)-benzo[b]thiophene-2-carboxylic acid (1H-tetrazol-5-yl)-amide] | 715
25 | COc1cc2sc(C(=O)Nc3nnn[nH]3)c(OCc3ccncc3)c2cc1OC [Example C.18, 5,6-Dimethoxy-3-(pyridin-4-ylmethoxy)-benzo[b]thiophene-2-carboxylic acid (1H-tetrazol-5-yl)-amide] | 450
26 | COc1cc2sc(C(=O)Nc3nnn[nH]3)c(OCc3cccc(N(C)C)c3)c2cc1OC [Example C.19, 3-(3-Dimethylamino-benzyloxy)-5,6-dimethoxy-benzo[b]thiophene-2-carboxylic acid (1H-tetrazol-5-yl)-amide] | 450
27 | COc1cc2sc(C(=O)Nc3nnn[nH]3)c(OCc3ccccc3OCC3CCCCC3)c2cc1OC [Example C.20, 3-(2-Cyclohexylmethoxy-benzyloxy)-5,6-dimethoxy-benzo[b]thiophene-2-carboxylic acid (1H-tetrazol-5-yl)-amide] | 410
28 | COc1cc2sc(C(=O)Nc3nnn[nH]3)c(OCCc3cccc4c3CCCC4)c2cc1OC [Example C.21, 5,6-Dimethoxy-3-[2-(5,6,7,8-tetrahydro-naphthalen-1-yl)-ethoxy]-benzo[b]thiophene-2-carboxylic acid (1H-tetrazol-5-yl)-amide] | 300
29 | COc1cc2sc(C(=O)Nc3nnn[nH]3)c(OCc3cccc4ccccc34)c2cc1OC [Example C.22, 5,6-Dimethoxy-3-(naphthalen-1-ylmethoxy)-benzo[b]thiophene-2-carboxylic acid (1H-tetrazol-5-yl)-amide] | 290
30 | COc1cc2sc(C(=O)Nc3nnn[nH]3)c(OC[C@@H](C)c3ccccc3)c2cc1OC [Example C.23, 5,6-Dimethoxy-3-((S)-2-phenyl-propoxy)-benzo[b]thiophene-2-carboxylic acid (1H-tetrazol-5-yl)-amide] | 255
31 | COc1cc2sc(C(=O)Nc3nnn[nH]3)c(OCc3cccc4c3CCCC4)c2cc1OC [Example C.24, 5,6-Dimethoxy-3-(5,6,7,8-tetrahydro-naphthalen-1-ylmethoxy)-benzo[b]thiophene-2-carboxylic acid (1H-tetrazol-5-yl)-amide] | 255
32 | COc1cc2sc(C(=O)Nc3nnn[nH]3)c(OCc3cccc(OC4CCCC4)c3)c2cc1OC [Example C.25, 3-(3-Cyclopentyloxy-benzyloxy)-5,6-dimethoxy-benzo[b]thiophene-2-carboxylic acid (1H-tetrazol-5-yl)-amide] | 230
33 | COc1cc2sc(C(=O)Nc3nnn[nH]3)c(OCc3cccc(OCC4CCCCC4)c3)c2cc1OC [Example C.26, 3-(3-Cyclohexylmethoxy-benzyloxy)-5,6-dimethoxy-benzo[b]thiophene-2-carboxylic acid (1H-tetrazol-5-yl)-amide] | 215
